# From patent US9623016B2, “Antibacterial compounds” (Emergent Virology LLC, priority 2013, dated 2017)
# Read-outs that look alike come from different tables or passages of the source.
# Legend:
# [1] = system: S. aureus (8324-5)
# Protocol: (§1) The MIC assay is a technique used to determine the lowest concentration of a particular antibiotic needed to inhibit visible growth of bacteria. In this method, two fold serial dilutions of the compound were prepared in broth media. An inoculum of overnight bacterial cultures will be prepared in the same broth medium. The serial dilution tubes will be inoculated with 0.025 ml of undiluted over-night culture (1:100), a 1×10-2 dilution (1:10,000), or a 1×10-4 dilution (1:1,000,000) of bacterial suspension. Results were recorded after 24 hour incubation at 35° C. without shaking by measuring OD600. The MIC is determined by the lowest concentration of compound where no growth is visible.
# [2] = system: P. aeruginosa 4858
# Protocol: as §1
# [3] = system: B. subtilis
# Protocol: as §1
# [4] = system: Staphylococcus aureus USA300; conditions: 200 mg/kg UV-4B orally TID for 10 days, from 3 days before IP challenge; water control 30%
# Protocol: The challenge inoculum included 6.13e4 cfu USA300+3% Hog mucin which causes bacteremia/sepsis within 24-72 h. […] The mice used were 6-8 week old female BALB/c mice in groups of 10. One group of 5 mice was also included to examine the potential toxicity of 3% hog mucin. Endpoint was day 10 post infection, death, or euthanasia Animals displaying severe illness as determined by >30% weight loss, extreme lethargy, or paralysis were euthanized. Observation included daily weight, health checks, and temperatures starting with the initiation of dosing until 10 days post challenge.
# [5] = system: S. aureus (USA300); test: Minimum Inhibitory Concentration (MIC); assay type: cell-based
# Protocol: as §1
smiles,measurement,setting,value
"COCCCCCCCCCN1C[C@H](O)[C@@H](O)[C@H](O)[C@H]1CO.Cl [UV-4B, hydrochloric acid salt of N-(9-Methoxynonyl)deoxynojirimycin]",MIC,"[1]; Table 3, two independent tests",2500 µg/mL
same,MIC,[1]; Table 4,1250 µg/mL
same,growth (OD600),"[1]; Table 4, 0.02 mg/ml",+ (+ OD600 <0.05)
same,growth (OD600),"[1]; Table 4, 0.04 mg/ml",+ (+ OD600 <0.05)
same,growth (OD600),"[1]; Table 4, 0.08 mg/ml",+ (+ OD600 <0.05)
same,growth (OD600),"[1]; Table 4, 0.16 mg/ml",+ (+ OD600 <0.05)
same,growth (OD600),"[1]; Table 4, 0.31 mg/ml",+ (+ OD600 <0.05)
same,growth (OD600),"[1]; Table 4, 0.63 mg/ml",+ (+ OD600 <0.05)
same,growth (OD600),"[1]; Table 4, 2.50 mg/ml",− (− OD600 >0.05)
same,growth (OD600),"[1]; Table 4, 5 mg/ml",− (− OD600 >0.05)
same,growth (OD600),"[1]; Table 4, 10 mg/ml",− (− OD600 >0.05)
same,growth (OD600),"[1]; Table 4, 20 mg/ml",− (− OD600 >0.05)
same,visible growth,[1]; UV-4B 0.04 mg/ml,+
same,visible growth,[1]; UV-4B 0.08 mg/ml,+
same,visible growth,[1]; UV-4B 0.16 mg/ml,+
same,visible growth,[1]; UV-4B 0.31 mg/ml,+
same,visible growth,[1]; UV-4B 0.63 mg/ml,+
same,visible growth,[1]; UV-4B 2.50 mg/ml,−
same,visible growth,[1]; UV-4B 5 mg/ml,−
same,visible growth,[1]; UV-4B 10 mg/ml,−
same,visible growth,[1]; UV-4B 20 mg/ml,−
same,MIC,[2]; Table 3,5000 µg/mL
same,MIC,[2]; Table 4,2500 µg/mL
same,growth (OD600),"[2]; Table 4, 0.02 mg/ml",+ (+ OD600 <0.05)
same,growth (OD600),"[2]; Table 4, 0.04 mg/ml",+ (+ OD600 <0.05)
same,growth (OD600),"[2]; Table 4, 0.08 mg/ml",+ (+ OD600 <0.05)
same,growth (OD600),"[2]; Table 4, 0.16 mg/ml",+ (+ OD600 <0.05)
same,growth (OD600),"[2]; Table 4, 0.31 mg/ml",+ (+ OD600 <0.05)
same,growth (OD600),"[2]; Table 4, 0.63 mg/ml",+ (+ OD600 <0.05)
same,growth (OD600),"[2]; Table 4, 2.50 mg/ml",− (− OD600 >0.05)
same,growth (OD600),"[2]; Table 4, 5 mg/ml",− (− OD600 >0.05)
same,growth (OD600),"[2]; Table 4, 10 mg/ml",− (− OD600 >0.05)
same,growth (OD600),"[2]; Table 4, 20 mg/ml",− (− OD600 >0.05)
same,visible growth,[2]; UV-4B 0.63 mg/ml,+
same,visible growth,[2]; UV-4B 2.50 mg/ml,+
same,visible growth,[2]; UV-4B 5 mg/ml,−
same,visible growth,[2]; UV-4B 10 mg/ml,−
same,visible growth,[2]; UV-4B 20 mg/ml,−
same,MIC,[3]; Table 3,2500 µg/mL
same,MIC,[3]; Table 4,625 µg/mL
same,growth (OD600),"[3]; Table 4, 0.02 mg/ml",+ (+ OD600 <0.05)
same,growth (OD600),"[3]; Table 4, 0.04 mg/ml",+ (+ OD600 <0.05)
same,growth (OD600),"[3]; Table 4, 0.08 mg/ml",+ (+ OD600 <0.05)
same,growth (OD600),"[3]; Table 4, 0.16 mg/ml",+ (+ OD600 <0.05)
same,growth (OD600),"[3]; Table 4, 0.31 mg/ml",+ (+ OD600 <0.05)
same,growth (OD600),"[3]; Table 4, 0.63 mg/ml",− (− OD600 >0.05)
same,growth (OD600),"[3]; Table 4, 2.50 mg/ml",− (− OD600 >0.05)
same,growth (OD600),"[3]; Table 4, 5 mg/ml",− (− OD600 >0.05)
same,growth (OD600),"[3]; Table 4, 10 mg/ml",− (− OD600 >0.05)
same,growth (OD600),"[3]; Table 4, 20 mg/ml",− (− OD600 >0.05)
same,visible growth,[3]; UV-4B 0.02 mg/ml,+
same,visible growth,[3]; UV-4B 0.04 mg/ml,+
same,visible growth,[3]; UV-4B 0.08 mg/ml,+
same,visible growth,[3]; UV-4B 0.16 mg/ml,+
same,visible growth,[3]; UV-4B 0.31 mg/ml,+
same,visible growth,[3]; UV-4B 0.63 mg/ml,+
same,visible growth,[3]; UV-4B 2.50 mg/ml,−
same,visible growth,[3]; UV-4B 5 mg/ml,−
same,visible growth,[3]; UV-4B 10 mg/ml,−
same,survival,[4],80%
same,MIC,"[5]; Table 3, two independent tests",2500 µg/mL
same,MIC,[5]; Table 4,62.5 µg/mL
same,growth (OD600),"[5]; Table 4, 0.02 mg/ml",+ (+ OD600 <0.05)
same,growth (OD600),"[5]; Table 4, 0.04 mg/ml",+ (+ OD600 <0.05)
same,growth (OD600),"[5]; Table 4, 0.08 mg/ml",+ (+ OD600 <0.05)
same,growth (OD600),"[5]; Table 4, 0.16 mg/ml",+ (+ OD600 <0.05)
same,growth (OD600),"[5]; Table 4, 0.31 mg/ml",+ (+ OD600 <0.05)
same,growth (OD600),"[5]; Table 4, 0.63 mg/ml",− (− OD600 >0.05)
same,growth (OD600),"[5]; Table 4, 2.50 mg/ml",− (− OD600 >0.05)
same,growth (OD600),"[5]; Table 4, 5 mg/ml",− (− OD600 >0.05)
same,growth (OD600),"[5]; Table 4, 10 mg/ml",− (− OD600 >0.05)
same,growth (OD600),"[5]; Table 4, 20 mg/ml",− (− OD600 >0.05)
same,visible growth,[5]; UV-4B 0.04 mg/ml,+
same,visible growth,[5]; UV-4B 0.08 mg/ml,+
same,visible growth,[5]; UV-4B 0.16 mg/ml,+
same,visible growth,[5]; UV-4B 0.31 mg/ml,+
same,visible growth,[5]; UV-4B 0.63 mg/ml,+
same,visible growth,[5]; UV-4B 2.50 mg/ml,−
same,visible growth,[5]; UV-4B 5 mg/ml,−
same,visible growth,[5]; UV-4B 10 mg/ml,−
same,visible growth,[5]; UV-4B 20 mg/ml,−
